Data published in patent US11820766B2, “Monoacylglycerol lipase modulators” (Janssen Pharmaceutica NV, priority 2018, dated 2023).
Where a name gives a salt, the structure may show the parent alone.

The molecules below were run against T1, human MGL from HeLa cells (Homo sapiens, UniProt Q99685) (assay: In vitro MGL activity assay: [glycerol-1,3-3H]-oleyl glycerol cleavage by MGL from HeLa cells). Details: 300 nM [Glycerol-1,3-3H]-oleyl glycerol, one hour.
T1 construct: combining endogenously expressed MGL from HeLa cells with test compounds; endogenous in cells; host or cells: HeLa cells / cell homogenates
T1 sequence (Q99685 1-303): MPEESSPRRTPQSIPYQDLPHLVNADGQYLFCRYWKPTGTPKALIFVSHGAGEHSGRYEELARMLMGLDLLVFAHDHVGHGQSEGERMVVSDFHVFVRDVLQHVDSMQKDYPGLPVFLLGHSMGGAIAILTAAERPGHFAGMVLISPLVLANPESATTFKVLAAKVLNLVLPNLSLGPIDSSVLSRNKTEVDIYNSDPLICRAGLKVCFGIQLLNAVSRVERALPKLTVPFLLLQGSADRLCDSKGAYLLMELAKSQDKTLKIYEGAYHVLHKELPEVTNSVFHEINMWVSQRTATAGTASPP
Format: biochemical
Text: MGL is the predominant hydrolase in HeLa cells/cell homogenates.

IC50	SMILES
19.6 nM	C[C@H]1c2nn(C)c(-c3cc(F)c(F)c(F)c3)c2CCN1C(=O)c1ccc2c(c1)CCCO2 [Example 580, Chroman-6-yl-[(7S)-2,7-dimethyl-3-(3,4,5-trifluorophenyl)-5,7-dihydro-4H-pyrazolo[3,4-c]pyridin-6-yl]methanone]
15.6 nM	C[C@H]1c2nn(C)c(-c3cc(F)c(F)c(F)c3)c2CCN1C(=O)c1cccc2c1CCCO2 [Example 581, Chroman-5-yl-[(7S)-2,7-dimethyl-3-(3,4,5-trifluorophenyl)-5,7-dihydro-4H-pyrazolo[3,4-c]pyridin-6-yl]methanone]
7.52 nM	C[C@H]1c2nn(C)c(-c3cc(F)c(F)c(F)c3)c2CCN1C(=O)c1ccc2c(c1)OCCC2 [Example 582, Chroman-7-yl-[(7S)-2,7-dimethyl-3-(3,4,5-trifluorophenyl)-5,7-dihydro-4H-pyrazolo[3,4-c]pyridin-6-yl]methanone]
1.42 nM	C[C@H]1c2nn(C)c(-c3cc(F)c(F)c(F)c3)c2CCN1C(=O)c1cccc2c1OCCC2 [Example 583, Chroman-8-yl-[(7S)-2,7-dimethyl-3-(3,4,5-trifluorophenyl)-5,7-dihydro-4H-pyrazolo[3,4-c]pyridin-6-yl]methanone]
300 nM	C[C@H]1c2nn(C)c(-c3cc(F)c(F)c(F)c3)c2CCN1C(=O)c1cccc2oc(=O)[nH]c12 [Example 584, 4-[(7S)-2,7-Dimethyl-3-(3,4,5-trifluorophenyl)-5,7-dihydro-4H-pyrazolo[3,4-c]pyridine-6-carbonyl]-3H-1,3-benzoxazol-2-one]
25.4 nM	C[C@H]1c2nn(C)c(-c3cc(F)c(F)c(F)c3)c2CCN1C(=O)c1cccc2oc(=O)n(C)c12 [Example 585, 4-[(7S)-2,7-Dimethyl-3-(3,4,5-trifluorophenyl)-5,7-dihydro-4H-pyrazolo[3,4-c]pyridine-6-carbonyl]-3-methyl-1,3-benzoxazol-2-one]
1000 nM	C[C@H]1c2nn(C)c(-c3cc(F)c(F)c(F)c3)c2CCN1C(=O)c1ccc2oc(=O)[nH]c2c1 [Example 586, 5-[(7S)-2,7-Dimethyl-3-(3,4,5-trifluorophenyl)-5,7-dihydro-4H-pyrazolo[3,4-c]pyridine-6-carbonyl]-3H-1,3-benzoxazol-2-one]
13.4 nM	C[C@H]1c2nn(C)c(-c3cc(F)c(F)c(F)c3)c2CCN1C(=O)c1cccc2[nH]c(=O)oc12 [Example 587, 7-[(7S)-2,7-Dimethyl-3-(3,4,5-trifluorophenyl)-5,7-dihydro-4H-pyrazolo[3,4-c]pyridine-6-carbonyl]-3H-1,3-benzoxazol-2-one]
11.3 nM	C[C@H]1c2nn(C)c(-c3cc(F)c(F)c(F)c3)c2CCN1C(=O)c1ccc2[nH]c(=O)oc2c1 [Example 588, 6-[(7S)-2,7-Dimethyl-3-(3,4,5-trifluorophenyl)-5,7-dihydro-4H-pyrazolo[3,4-c]pyridine-6-carbonyl]-3H-1,3-benzoxazol-2-one]
1.84 nM	C[C@H]1c2nn(C)c(-c3cc(F)c(F)c(F)c3)c2CCN1C(=O)c1cccc2c1oc(=O)n2C [Example 589, 7-[(7S)-2,7-dimethyl-3-(3,4,5-trifluorophenyl)-5,7-dihydro-4H-pyrazolo[3,4-c]pyridine-6-carbonyl]-3-methyl-1,3-benzoxazol-2-one]
173 nM	C[C@H]1c2nn(C)c(-c3cc(F)c(F)c(F)c3)c2CCN1C(=O)c1ccc2c(c1)OCC(=O)N2C [Example 590, 7-[(7S)-2,7-Dimethyl-3-(3,4,5-trifluorophenyl)-5,7-dihydro-4H-pyrazolo[3,4-c]pyridine-6-carbonyl]-4-methyl-1,4-benzoxazin-3-one.TFA salt]
4.18 nM	C[C@H]1c2nn(C)c(-c3cc(F)c(F)c(F)c3)c2CCN1C(=O)c1cccc2c1OCC(=O)N2C [Example 591, [(7S)-2,7-8-[(7S)-2,7-Dimethyl-3-(3,4,5-trifluorophenyl)-5,7-dihydro-4H-pyrazolo[3,4-c]pyridine-6-carbonyl]-4-methyl-1,4-benzoxazin-3-one.TFA salt]
7.31 nM	C[C@H]1c2nn(C)c(-c3cc(F)c(F)c(F)c3)c2CCN1C(=O)c1cccc2c1OCCN2 [Example 592, 3,4-Dihydro-2H-1,4-benzoxazin-8-yl-[(7S)-2,7-dimethyl-3-(3,4,5-trifluorophenyl)-5,7-dihydro-4H-pyrazolo[3,4-c]pyridin-6-yl]methanone]
57 nM	COc1nccc(C(=O)N2CCc3c(nn(C)c3-c3ccc(F)c(C(F)F)c3)[C@@H]2C)c1C [Example 593, [(7S)-3-[3-(Difluoromethyl)-4-fluoro-phenyl]-2,7-dimethyl-5,7-dihydro-4H-pyrazolo[3,4-c]pyridin-6-yl]-(2-methoxy-3-methyl-4-pyridyl)methanone]
335 nM	COc1nccc(C(=O)N2CCc3c(nn(C)c3-c3cccc(C(C)(F)F)c3)[C@@H]2C)c1C [Example 594, [(7S)-3-[3-(1,1-Difluoroethyl)phenyl]-2,7-dimethyl-5,7-dihydro-4H-pyrazolo[3,4-c]pyridin-6-yl]-(2-methoxy-3-methyl-4-pyridyl)methanone]
106 nM	COc1nccc(C(=O)N2CCc3c(nn(C)c3-c3ccc(F)c(OC(F)F)c3)[C@@H]2C)c1C [Example 595, [(7S)-3-[3-(Difluoromethoxy)-4-fluoro-phenyl]-2,7-dimethyl-5,7-dihydro-4H-pyrazolo[3,4-c]pyridin-6-yl]-(2-methoxy-3-methyl-4-pyridyl)methanone]
28.7 nM	C[C@H]1c2nn(C)c(-c3cc(F)cc(OC(F)F)c3)c2CCN1C(=O)c1ccc2c(c1)OCCC2 [Example 596, Chroman-7-yl-[(7S)-3-[3-(difluoromethoxy)-5-fluoro-phenyl]-2,7-dimethyl-5,7-dihydro-4H-pyrazolo[3,4-c]pyridin-6-yl]methanone]
25 nM	COc1nccc(C(=O)N2CCc3c(nn(C)c3-c3cc(F)cc(OC(F)F)c3)[C@@H]2C)c1C [Example 597, [(7S)-3-[3-(Difluoromethoxy)-5-fluoro-phenyl]-2,7-dimethyl-5,7-dihydro-4H-pyrazolo[3,4-c]pyridin-6-yl]-(2-methoxy-3-methyl-4-pyridyl)methanone]
29.9 nM	COc1nccc(C(=O)N2CCc3c(nn(C)c3-c3ccc(F)c(C)c3)[C@@H]2C)c1C [Example 598, [(7S)-3-(4-Fluoro-3-methyl-phenyl)-2,7-dimethyl-5,7-dihydro-4H-pyrazolo[3,4-c]pyridin-6-yl]-(2-methoxy-3-methyl-4-pyridyl)methanone]
71.4 nM	COc1c(C(=O)N2CCc3c(nn(C)c3-c3cc(F)c(F)c(F)c3)[C@@H]2C)ccnc1C [Example 599, [(7S)-2,7-Dimethyl-3-(3,4,5-trifluorophenyl)-5,7-dihydro-4H-pyrazolo[3,4-c]pyridin-6-yl]-(3-methoxy-2-methyl-4-pyridyl)methanone]
110 nM	C[C@H]1c2nn(C)c(-c3cc(F)c(F)c(F)c3)c2CCN1C(=O)c1nc(-c2ccccc2)cn1C [Example 600, [(7S)-2,7-Dimethyl-3-(3,4,5-trifluorophenyl)-5,7-dihydro-4H-pyrazolo[3,4-c]pyridin-6-yl]-(1-methyl-4-phenyl-imidazol-2-yl)methanone]
252 nM	C[C@H]1c2nn(C)c(-c3cc(F)c(F)c(F)c3)c2CCN1C(=O)c1cn(-c2ccccc2)cn1 [Example 601, [(7S)-2,7-Dimethyl-3-(3,4,5-trifluorophenyl)-5,7-dihydro-4H-pyrazolo[3,4-c]pyridin-6-yl]-(1-phenylimidazol-4-yl)methanone]
